Test results reported in patent publication US20240174622A1, “COMPOUND AND RADIOACTIVE LABELING COMPOUND” (NIHON MEDI-PHYSICS CO., LTD., priority 2021, published 2024).

Columns and labels:
[1] = tested on: LNCaP tumor-transplanted mouse; assay: Internal radioactivity distribution using LNCaP tumor-transplanted mouse; assay type: in vivo
Experimental: (§1) The animal test was performed in compliance with the guidelines of Kyoto University Animal Experiment Committee. Male CB17/IcrJcl-Prkdc^scid mice were purchased from CLEA Japan, Inc. The animals were kept under 12 h/12 h, day/night cycle conditions and fed ad libitum with food and water. LNCaP cells (1.0×10^7 cells/mouse) or PC-3 cells (1.0×10^7 cells/mouse) were suspended in a mixture of PBS and Matrigel manufactured by Corning Life Sciences (1:1, 150 μL) and the suspension was subcutaneously transplanted to the right shoulder of mice under isoflurane anesthesia. Thereafter, the mice were kept for 40 to 60 days.
LNCaP or PC-3 tumor-implanted mice were administered saline solutions (185 kBq, 100 μL) of [^111In]In-PSMA-DA1 or [^111In]In-PSMA-DB from the tail vein (n=3 each). Mice were euthanized 1, 4, 24, 48, 96, and 192 hours after administration. Thereafter, blood and each organ were recovered, and the mass and radioactivity of the organs were measured.
The percentage (% ID) of the radioactivity amount to the administered radioactivity amount (injected dose) is shown as the value (% ID/g) divided by the blood mass or the organ mass (g).
LNCaP tumor-implanted mice prepared by the same method as in Example 1-1 were administered a saline solution (241 kBq/100 μL) of [^111In]In-PtDA from the tail vein (n=3). Mice were euthanized 1, 24, and 48 hours after administration. Thereafter, blood and each organ were recovered, and the mass and radioactivity of the organs were measured.
LNCaP tumor-implanted mice prepared by the same method as in Example 1-1 were administered a saline solution (259 kBq/100 μL each) of each of the radiolabeled compounds in Examples 3-1 to 3-3 or Comparative Examples 2-1 to 2-2 from the tail vein (n=2 to 3). Mice were euthanized 1, 4, 24, 48, 96, and 192 hours after administration. Thereafter, blood and each organ were recovered, and the mass and radioactivity of the organs were measured.
as §1, with “LNCaP cells (4.3×10^6 cells/mouse) or” for “LNCaP cells (1.0×10^7 cells/mouse) or”, “PC-3 cells (3.3×10^6 cells/mouse) were” for “PC-3 cells (1.0×10^7 cells/mouse) were”, “shoulder of CB17/IcrJcl-Prkdc^scid mice under” for “shoulder of mice under”
Mice were euthanized 1, 4, 24, 48, 96, and 192 hours after administration. Thereafter, blood and each organ were recovered, and the mass and radioactivity of the organs were measured.
The results are shown in Table 12 (Mean value±standard deviation, n=3).

[2] = target: human serum albumin (HSA) (Homo sapiens, UniProt P02768); assay: Evaluation of binding to albumin (HSA solution, PBS control); conditions: left to stand in HSA solution (45 mg/mL)
Experimental: Thereafter, the reaction liquids were added to a spin column (Sephadex G-100; manufactured by Cytiva), and centrifuged at 1500×g at 4° C. for 2 minutes. After separation, the radioactivity for each of the column and the eluate was measured with a gamma counter.
When a compound to be evaluated binds to albumin to form a composite, the compound passes through the column because of the increased molecular size.
As in Examples described above, PBS and human albumin were used to evaluate binding to albumin.
Thereafter, the reaction liquid was added to a spin column (Sephadex G-50; manufactured by Cytiva), and centrifuged at 1500×g at 4° C. for 2 minutes. After separation, the radioactivity of the column and the eluate was measured with a gamma counter.

Sequence of human serum albumin (HSA) (P02768 25-609): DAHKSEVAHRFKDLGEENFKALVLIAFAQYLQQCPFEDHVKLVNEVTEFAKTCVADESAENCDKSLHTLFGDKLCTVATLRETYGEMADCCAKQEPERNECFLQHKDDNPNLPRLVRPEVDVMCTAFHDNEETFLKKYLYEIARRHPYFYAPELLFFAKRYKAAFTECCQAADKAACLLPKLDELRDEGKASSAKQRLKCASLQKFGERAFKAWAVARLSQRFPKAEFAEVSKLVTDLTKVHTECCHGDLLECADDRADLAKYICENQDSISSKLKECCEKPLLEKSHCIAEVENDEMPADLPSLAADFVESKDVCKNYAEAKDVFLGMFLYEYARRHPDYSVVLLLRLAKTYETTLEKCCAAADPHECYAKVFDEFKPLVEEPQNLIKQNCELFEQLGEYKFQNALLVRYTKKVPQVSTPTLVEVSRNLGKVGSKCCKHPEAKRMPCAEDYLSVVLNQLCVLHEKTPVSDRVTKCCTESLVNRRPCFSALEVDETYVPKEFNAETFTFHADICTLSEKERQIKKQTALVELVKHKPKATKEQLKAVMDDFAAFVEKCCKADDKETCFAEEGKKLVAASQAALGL

`O=C([O-])CN(CCN(CCc1ccc(NC(=O)CCCCCNC(=O)CCC(=O)NCCCC[C@H](NC(=O)N[C@@H](CCC(=O)O)C(=O)O)C(=O)O)cc1)CCN(CC(=O)[O-])Cc1cccc(C(=O)[O-])n1)Cc1cccc(C(=O)[O-])n1.[111In+3]` [[^111In]In-Neunpa-1, reference compound] was tested, and the Blood ([1]; 1 h after administration) was 2.30 ± 0.28 % ID/g, the Brain ([1]; 1 h after administration) was 0.05 ± 0.00 % ID/g and the Heart ([1]; 1 h after administration) was 0.70 ± 0.03 % ID/g. The Intestine ([1]; 1 h after administration) was 0.47 ± 0.03 % ID/g, the Kidney ([1]; 1 h after administration) was 214 ± 53.0 % ID/g and the “LNCaP Tumor” value ([1]; 1 h after administration) was 1.06 ± 0.21 % ID/g. The Liver ([1]; 1 h after administration) was 0.60 ± 0.07 % ID/g, the Lung ([1]; 1 h after administration) was 1.75 ± 0.18 % ID/g and the Muscle ([1]; 1 h after administration) was 0.28 ± 0.06 % ID/g. For the same compound, the Pancreas ([1]; 1 h after administration) was 0.57 ± 0.14 % ID/g, the Spleen ([1]; 1 h after administration) was 6.83 ± 1.70 % ID/g and the “Stomach (% ID)” value ([1]; 1 h after administration) was 0.17 ± 0.02 % ID. It also gave a Blood ([1]; 4 h after administration) of 1.24 ± 0.15 % ID/g, a Brain ([1]; 4 h after administration) of 0.04 ± 0.00 % ID/g and a Heart ([1]; 4 h after administration) of 0.47 ± 0.08 % ID/g. The Intestine ([1]; 4 h after administration) was 0.66 ± 0.08 % ID/g, the Kidney ([1]; 4 h after administration) was 125 ± 89.2 % ID/g and the “LNCaP Tumor” value ([1]; 4 h after administration) was 0.69 ± 0.30 % ID/g. It also gave a Liver ([1]; 4 h after administration) of 0.69 ± 0.05 % ID/g, a Lung ([1]; 4 h after administration) of 1.03 ± 0.13 % ID/g and a Muscle ([1]; 4 h after administration) of 0.11 ± 0.04 % ID/g. For the same compound, the Pancreas ([1]; 4 h after administration) was 0.50 ± 0.13 % ID/g, the Spleen ([1]; 4 h after administration) was 4.76 ± 1.17 % ID/g and the “Stomach (% ID)” value ([1]; 4 h after administration) was 0.11 ± 0.03 % ID. For the same compound, the Blood ([1]; 24 h after administration) was 0.20 ± 0.02 % ID/g, the Brain ([1]; 24 h after administration) was 0.02 ± 0.01 % ID/g and the Heart ([1]; 24 h after administration) was 0.21 ± 0.01 % ID/g. For the same compound, the Intestine ([1]; 24 h after administration) was 0.32 ± 0.02 % ID/g, the Kidney ([1]; 24 h after administration) was 13.5 ± 0.43 % ID/g and the “LNCaP Tumor” value ([1]; 24 h after administration) was 0.28 ± 0.02 % ID/g. For the same compound, the Liver ([1]; 24 h after administration) was 0.69 ± 0.05 % ID/g, the Lung ([1]; 24 h after administration) was 0.34 ± 0.05 % ID/g and the Muscle ([1]; 24 h after administration) was 0.10 0.00 % ID/g. For the same compound, the Pancreas ([1]; 24 h after administration) was 0.28 ± 0.03 % ID/g, the Spleen ([1]; 24 h after administration) was 2.74 ± 0.07 % ID/g and the “Stomach (% ID)” value ([1]; 24 h after administration) was 0.05 ± 0.00 % ID. It also gave a Blood ([1]; 48 h after administration) of 0.09 ± 0.03 % ID/g, a Brain ([1]; 48 h after administration) of 0.03 ± 0.01 % ID/g and a Heart ([1]; 48 h after administration) of 0.18 ± 0.05 % ID/g. For the same compound, the Intestine ([1]; 48 h after administration) was 0.32 ± 0.06 % ID/g, the Kidney ([1]; 48 h after administration) was 25.2 ± 17.1 % ID/g and the “LNCaP Tumor” value ([1]; 48 h after administration) was 0.30 ± 0.11 % ID/g. The Liver ([1]; 48 h after administration) was 0.80 ± 0.13 % ID/g, the Lung ([1]; 48 h after administration) was 0.32 ± 0.04 % ID/g and the Muscle ([1]; 48 h after administration) was 0.10 ± 0.03 % ID/g. The Pancreas ([1]; 48 h after administration) was 0.38 ± 0.06 % ID/g, the Spleen ([1]; 48 h after administration) was 2.62 ± 0.79 % ID/g and the “Stomach (% ID)” value ([1]; 48 h after administration) was 0.09 ± 0.06 % ID. For the same compound, the Blood ([1]; 96 h after administration) was 0.06 ± 0.02 % ID/g, the Brain ([1]; 96 h after administration) was 0.03 ± 0.00 % ID/g and the Heart ([1]; 96 h after administration) was 0.28 ± 0.06 % ID/g. The Intestine ([1]; 96 h after administration) was 0.16 ± 0.07 % ID/g, the Kidney ([1]; 96 h after administration) was 15.1 ± 4.76 % ID/g and the “LNCaP Tumor” value ([1]; 96 h after administration) was 0.32 ± 0.09 % ID/g. It also gave a Liver ([1]; 96 h after administration) of 0.77 ± 0.07 % ID/g, a Lung ([1]; 96 h after administration) of 0.39 ± 0.06 % ID/g and a Muscle ([1]; 96 h after administration) of 0.09 ± 0.03 % ID/g. The Pancreas ([1]; 96 h after administration) was 0.32 ± 0.02 % ID/g, the Spleen ([1]; 96 h after administration) was 2.47 ± 0.60 % ID/g and the “Stomach (% ID)” value ([1]; 96 h after administration) was 0.07 ± 0.03 % ID. For the same compound, the Blood ([1]; 192 h after administration) was 0.01 % ID/g, the Brain ([1]; 192 h after administration) was 0.03 % ID/g and the Heart ([1]; 192 h after administration) was 0.22 % ID/g. The Intestine ([1]; 192 h after administration) was 0.06 % ID/g, the Kidney ([1]; 192 h after administration) was 2.79 % ID/g and the “LNCaP Tumor” value ([1]; 192 h after administration) was 0.15 % ID/g. It also gave a Liver ([1]; 192 h after administration) of 0.63 % ID/g, a Lung ([1]; 192 h after administration) of 0.20 % ID/g and a Muscle ([1]; 192 h after administration) of 0.07 % ID/g. The Pancreas ([1]; 192 h after administration) was 0.37 % ID/g, the Spleen ([1]; 192 h after administration) was 1.05 % ID/g and the “Stomach (% ID)” value ([1]; 192 h after administration) was 0.02 % ID. The “radioactivity in the eluate (in words)” value [2] was “low”.
